Patent US12551563B2, “ERK5 degraders as therapeutics in cancer and inflammatory diseases” (DANA-FARBER CANCER INSTITUTE, INC., priority 2019, dated 2026)

What was measured:
Assay type in all cases: cell-based
ERK5 [1] = target: T1, ERK5 (Homo sapiens, UniProt Q13164); assay: Western blot, rescue of compound 7-induced ERK5 degradation by pretreatment in MIA Paca-2 cells; design: immunoblotted with primary antibodies against ERK5 (Cell Signaling®); endogenous in cells; host or cells: MIA PaCa-2; details: for Rescue of ERK5 degradation induced by bispecific compound 7: then 1 μM compound 7 for 24 h (FIG. 3)
T1 sequence (Q13164 whole entry): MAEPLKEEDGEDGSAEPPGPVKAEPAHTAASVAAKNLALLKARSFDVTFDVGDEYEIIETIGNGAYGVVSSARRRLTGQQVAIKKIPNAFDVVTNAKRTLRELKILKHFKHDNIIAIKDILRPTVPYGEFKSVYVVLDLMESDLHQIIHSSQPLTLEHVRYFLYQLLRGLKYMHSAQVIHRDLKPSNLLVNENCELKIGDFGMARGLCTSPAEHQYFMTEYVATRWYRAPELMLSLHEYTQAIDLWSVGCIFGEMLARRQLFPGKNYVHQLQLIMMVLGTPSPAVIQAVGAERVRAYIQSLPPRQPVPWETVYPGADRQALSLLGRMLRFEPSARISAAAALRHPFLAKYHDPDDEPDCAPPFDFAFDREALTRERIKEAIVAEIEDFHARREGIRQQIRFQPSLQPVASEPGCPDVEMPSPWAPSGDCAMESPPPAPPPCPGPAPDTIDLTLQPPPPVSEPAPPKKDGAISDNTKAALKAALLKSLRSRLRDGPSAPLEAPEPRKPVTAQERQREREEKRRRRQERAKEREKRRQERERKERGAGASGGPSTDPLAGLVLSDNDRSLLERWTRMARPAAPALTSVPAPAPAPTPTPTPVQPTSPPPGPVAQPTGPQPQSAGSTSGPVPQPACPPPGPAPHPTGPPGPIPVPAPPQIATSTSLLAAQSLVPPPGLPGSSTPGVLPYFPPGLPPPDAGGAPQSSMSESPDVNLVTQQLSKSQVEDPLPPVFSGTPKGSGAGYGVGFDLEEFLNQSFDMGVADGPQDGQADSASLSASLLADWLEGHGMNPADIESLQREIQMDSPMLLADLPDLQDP
Procedure: (§1) MIA Paca-2 cells were treated with 0, 0.1, 1, or 10 μM of bispecific compounds 3-7 for 24 hours. Cells were then lysed in RIPA buffer (Sigma®) containing protease/phosphatase inhibitor cocktail (Roche®). The protein concentrations were measured by bicinchoninic acid assay (BCA) analysis (Pierce™). Equal amounts of protein were resolved by 4-12% Tris-Base gels (Invitrogen™), and then transferred to the Immuno-Blot PVDF membrane (BioRad), and immunoblotted with primary antibodies against ERK5 (Cell Signaling®) and […] (Cell Signaling®), and then immunoblotted with IRDye®800-labeled goat anti-rabbit IgG and IRDye®800-labeled goat anti-mouse IgG (LI-COR) secondary antibodies. The membranes were detected on Odyssey® CLx system.
MIA Paca-2 cells were pretreated with 10 μM XMD17-109 (the parental compound and known ERK5 inhibitor; available from, e.g., MedChemExpress, Cat. No. HY-15665, Monmouth Junction, N.J.), 10 μM DGY-05-180 (VHL ligand), 0.1 μM Bortezomib (a proteasome inhibitor; available from, e.g., Millipore Sigma, Cat. No. 179324-69-7, Burlington, Mass.), and 1 μM MLN4924 (a neddylation inhibitor; available from, e.g., MedChemExpress, Cat. No. HY-70062, Monmouth Junction, N.J.), for 2 h, and then treated with 1 μM bispecific compound 7 for 24 h. Cells were lysed and immunoblotted as described above with antibodies to ERK5 and GAPDH (Cell Signaling®).

ERK5 [2] = target: T1, ERK5; assay: Western blot of ERK5 degradation in A375 cells; design: immunoblotted with primary antibodies against ERK5 (Cell Signaling®); endogenous in cells; host or cells: A375; details: 24 hours, at 1 and 10 μM (FIG. 2)
Procedure: as §1
A375 cells were treated with 0, 0.1, 1, or 10 μM of bispecific compounds 3, 4, and 7-9 for 24 hours. Cells were lysed and immunoblotted as described above with antibodies to ERK5 and β-Actin.

ERK5 [3] = target: T1, ERK5; assay: Western blot of ERK5 degradation in MIA Paca-2 cells; design: immunoblotted with primary antibodies against ERK5 (Cell Signaling®); endogenous in cells; host or cells: MIA PaCa-2; details: 24 hours, at 1 and 10 μM (FIG. 1)
Procedure: as §1

ERK5 [4] = target: T1, ERK5; assay: Western blot of ERK5 degradation in MOLT4 cells (dose curve); design: immunoblotted with primary antibodies against ERK5 (Cell Signaling®); endogenous in cells; host or cells: MOLT4; details: 5 hours, 0.1, 0.25, 0.5, or 1 μM (FIG. 5)
Procedure: as §1
(§2) MOLT4 cells were treated with 0.1, 0.25, 0.5, or 1 μM of bispecific compounds 18 and 23 for 5 hours. Cells were lysed and immunoblotted as described above with antibodies to ERK5, BRD4, and β-Actin.

ERK5 [5] = target: T1, ERK5; assay: Western blot of ERK5 degradation in MOLT4 cells (0.1 or 1 μM); design: immunoblotted with primary antibodies against ERK5 (Cell Signaling®); endogenous in cells; host or cells: MOLT4; details: 5 hours, at 0.1 and 1 μM (FIG. 4)
Procedure: as §1
MOLT4 cells were treated with 0.1 or 1 μM of bispecific compounds 15-20 for 5 hours. Cells were lysed and immunoblotted as described above with antibodies to ERK5 and β-Actin.

BRD4 = target: T2, BRD4 (Homo sapiens, UniProt O60885); assay: Western blot of BRD4 degradation in MOLT4 cells (dose curve); details: 5 hours, 0.1, 0.25, 0.5, or 1 μM (FIG. 5)
T2 construct: endogenous in cells; host or cells: MOLT4
Procedure: as §1, §2

CC(C)C[C@H](NC(=O)[C@H](Cc1ccccc1)NC(=O)c1cnccn1)B(O)O [Bortezomib]
Rescue of ERK5 degradation induced by bispecific compound 7 (ERK5 [1]; pretreated 2 h with 0.1 μM): rescued the ERK5 degradation induced by bispecific compound 7

NS(=O)(=O)OC[C@@H]1C[C@@H](n2ccc3c(N[C@H]4CCc5ccccc54)ncnc32)C[C@@H]1O [MLN4924]
Rescue of ERK5 degradation induced by bispecific compound 7 (ERK5 [1]; pretreated 2 h with 1 μM): rescued the ERK5 degradation induced by bispecific compound 7

CCOc1cc(C(=O)N2CCC(N3CCN(C)CC3)CC2)ccc1Nc1ncc2c(n1)N(C1CCCC1)c1ccccc1C(=O)N2C [XMD17-109]
Rescue of ERK5 degradation induced by bispecific compound 7 (ERK5 [1]; pretreated 2 h with 10 μM): rescued the ERK5 degradation induced by bispecific compound 7

Cc1ncsc1-c1ccc([C@H](C)NC(=O)[C@@H]2C[C@@H](O)CN2C(=O)[C@@H](NC(=O)CCCCCCCNC(=O)c2ccc(Nc3ncc4c(n3)N(C3CCCC3)c3ccccc3C(=O)N4C)cc2)C(C)(C)C)cc1 [compound 7, (2S,4R)-1-((S)-2-(8-(4-((11-cyclopentyl-5-methyl-6-oxo-6,11-dihydro-5H-benzo[e]pyrimido[5,4-b][1,4]diazepin-2-yl)amino)benzamido)octanamido)-3,3-dimethylbutanoyl)-4-hydroxy-N-((S)-1-(4-(4-methylthiazol-5-yl)phenyl)ethyl)pyrrolidine-2-carboxamide]
ERK5 degradation (Western blot) (ERK5 [2]): induced the degradation of ERK5
ERK5 degradation (Western blot) (ERK5 [3]): induced the degradation of ERK5
Dependence of ERK5 degradation (mechanism) (ERK5 [1]; 1 μM for 24 h after pretreatment with competitors/inhibitors (FIG. 3)): both ligand and proteasome dependent

Cc1ncsc1-c1ccc([C@H](C)NC(=O)[C@@H]2C[C@@H](O)CN2C(=O)[C@@H](NC(=O)CCCCCN2CCN(C(=O)c3ccc(Nc4ncc5c(n4)N(C4CCCC4)c4ccccc4C(=O)N5C)cc3)CC2)C(C)(C)C)cc1 [compound 18, (2S,4R)-1-((S)-2-(6-(4-(4-((11-cyclopentyl-5-methyl-6-oxo-6,11-dihydro-5H-benzo[e]pyrimido[5,4-b][1,4]diazepin-2-yl)amino)benzoyl)piperazin-1-yl)hexanamido)-3,3-dimethylbutanoyl)-4-hydroxy-N-((S)-1-(4-(4-methylthiazol-5-yl)phenyl)ethyl)pyrrolidine-2-carboxamide]
ERK5 degradation (Western blot) (ERK5 [4]): induced the degradation of ERK5
ERK5 degradation (Western blot) (ERK5 [5]): induced the degradation of ERK5
BRD4 degradation (Western blot) (BRD4): induced the degradation of ERK5 and BRD4

CCC(C)N1c2ccccc2C(=O)N(C)c2cnc(Cc3ccc(C(=O)N4CCN(CCCCCC(=O)N[C@H](C(=O)N5C[C@H](O)C[C@H]5C(=O)N[C@@H](C)c5ccc(-c6scnc6C)cc5)C(C)(C)C)CC4)cc3)nc21 (stereo partly drawn) [compound 23, (2S,4R)-1-((2S)-2-(6-(4-(4-((11-(sec-butyl)-5-methyl-6-oxo-6,11-dihydro-5H-benzo[e]pyrimido[5,4-b][1,4]diazepin-2-yl)methyl)benzoyl)piperazin-1-yl)hexanamido)-3,3-dimethylbutanoyl)-4-hydroxy-N-((S)-1-(4-(4-methylthiazol-5-yl)phenyl)ethyl)pyrrolidine-2-carboxamide]
ERK5 degradation (Western blot) (ERK5 [4]): induced the degradation of ERK5
